# PubChem BioAssay AID489024 (Sanford-Burnham Center for Chemical Genomics, 2010)
# The source made the active and inactive calls.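 Rule for the calls: active = compounds whose mean EC50, the dose giving half the maximal reporter activation, is at or below a set limit; inactive = the rest.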
# Target: CHO-CHOP luciferase reporter, UPR activation, luminescence
# Assay: CHOP reporter induction, apoptotic UPR branch – CHO-CHOP cells, luciferase luminescence, confirmation (AID 489024);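 note: compounds added alone to reporter cells with no tunicamycin stress co-treatment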
row,Structure (SMILES),EC50
1,CC1=NOC(=O)/C1=C/c1ccc(-c2ccc(Cl)cc2)o1,9.98 µM
2,O=c1nc(Nc2cccc(Cl)c2)oc2cc(Cl)oc(=O)c12,11.5 µM
3,CCSC1(SCC)N=C(N)C2(C#N)C(c3ccc(OC)c(OC)c3OC)C12C#N (centres undefined),14.7 µM
4,COc1ccc(C(=O)C(CN2CCCC2)c2ccccc2)cc1 (centres undefined),13.9 µM
5,COc1ccccc1N1C(=O)C=C(Sc2nc(C)cc(C)n2)C1=O,> 80 µM (inactive)
6,Cc1cc(C(=O)CCl)c(C)n1Cc1ccco1,7.35 µM
7,CC1CCN(Cc2c(C(=O)N/N=C/c3ccc(C(C)(C)C)cc3)nnn2-c2nonc2N)CC1,8.4 µM
8,COC(=O)c1ccc(-n2c(C)cc(C(=O)CCl)c2C)cc1,4.62 µM
9,CCc1ccc(NC(=O)C(CC)Sc2nc3cc4c(cc3c(=O)n2Cc2ccco2)OCO4)cc1 (centres undefined),14.9 µM
10,COc1ccc(/C=N/Nc2cc(C)nc(-n3nc(C)cc3C)n2)c(OC)c1,7.32 µM
11,CC1=CC(C)(C)Nc2ccc(OC(=O)CN3C(=O)C4CCCCC4C3=O)cc21 (centres undefined),8.07 µM
12,C/C(=N\Nc1ncnc2sc(C)c(C)c12)c1ccccn1,5.59 µM
13,COc1ccc(N=c2oc3c(OC)cccc3cc2C(=O)NCc2ccco2)c(OC)c1,inactive
14,COc1cccc(-n2c(SCC(=O)N3CCc4ccccc43)nnc2-c2c[nH]c3ccccc23)c1,> 80 µM (inactive)
15,Cc1ccc2[nH]cc(C(=O)CCl)c2c1,7.64 µM
16,Cc1cc(NC(=O)CCS(=O)(=O)c2nc(-c3ccccc3)cc(C(F)(F)F)n2)no1,7.4 µM
17,COc1cc(/C=C/[N+](=O)[O-])ccc1O,> 80 µM (inactive)
18,Nc1c(C(=O)Nc2ccc(S(=O)(=O)N3CCCC3)cc2)sc2nc3ccc(OC(F)(F)F)cc3cc12,> 80 µM (inactive)
19,CN(c1ccccc1)S(=O)(=O)c1cccc(C(=O)NCCc2ccc(O)c(O)c2)c1,7.53 µM
20,COc1ccc(C(=O)Nc2ccccc2C(=O)N/N=C/c2ccccn2)cc1OC,6.44 µM
21,CCOC(=O)C(=Cc1ccc(OCc2ccc([N+](=O)[O-])cc2)c(OC)c1)C(=O)OCC,6.51 µM
22,C=C1C(=O)C=C[C@]2(C)C[C@@H]3OC(=O)[C@](C)(O)[C@H]3C[C@@H]12,12.7 µM
23,CCOc1ccc(N2C(=O)/C(=C\c3cccs3)C(=O)NC2=S)cc1,8.68 µM
24,COc1ccccc1N=c1oc2c(OC)cccc2cc1C(=O)NCc1ccco1,> 80 µM (inactive)
25,Fc1ccc(NC(=S)Nc2nccs2)cc1,inactive
26,CCOC(=O)c1c(-c2ccc(-c3ccccc3)cc2)csc1NC(=O)CNCCN(C)C,7.71 µM
27,O=C(NC1CCCC1)C(c1ccc(F)cc1)N(Cc1ccc(Cl)cc1)C(=O)CCl (centres undefined),7.8 µM

row,Structure (SMILES),EC50
1,Cc1cccnc1Nc1nc(-c2ccccn2)cs1,0.64 µM
2,COc1ccc2c(c1OC)C(=O)OC2Nc1nc(-c2ccccc2)cs1 (centres undefined),> 80 µM (inactive)
3,O=C(COc1ccc2ccccc2c1)N1CCN(Cc2c[nH]c3ccccc23)CC1,13.6 µM
4,O=C(CCl)N1N=C(c2cccs2)CC1c1ccco1 (centres undefined),> 80 µM (inactive)
5,COc1ccc(-c2oc(NC(=O)CCl)c(C#N)c2-c2ccc(OC)cc2)cc1,12.9 µM
6,Oc1c(C(c2ccccn2)N2CCC(Cc3ccccc3)CC2)cc(Cl)c2cccnc12 (centres undefined),inactive
7,COc1ccc(C2=CC(=O)N(Nc3ccccc3)C2=O)cc1,13.5 µM
8,CCn1c(-c2ccccc2)c(C(=O)CCl)c2ccccc21,8.47 µM
9,Cc1cccc(/C=C/C(=O)c2ccc([N+](=O)[O-])o2)c1,7.44 µM
10,COCCN=c1scc(-c2cccs2)n1/N=C/c1ccc(O)c(O)c1O,inactive
11,COc1ccc(NC(=O)C(=O)N/N=C\c2ccc(CNC(=O)C(=O)Nc3ccc(C)c(C)c3)o2)c(OC)c1,8.25 µM
12,O=C(NCc1cccnc1)/C(=C/c1ccc(-c2ccc(Cl)cc2)o1)S(=O)(=O)c1ccccc1,6.18 µM
13,Cc1ccc(-n2nc3cc(C)c(NC(=S)NC(=O)/C=C/c4ccco4)cc3n2)cc1,16.2 µM
14,COc1cccc(/C=N/Nc2nc(Nc3ccccc3)nc(-n3nc(C)cc3C)n2)c1O,4.28 µM
15,C=CCSC(=C(C#N)C#N)c1cc2c([nH]1)CCCC2,> 80 µM (inactive)
16,O=C(N/N=C/c1ccccn1)c1cc(-c2ccc(Cl)cc2)nc2ccccc12,2.51 µM
17,CCOc1ccc2nc(SC3CC(=O)N(c4ccc(C)cc4)C3=O)sc2c1 (centres undefined),> 80 µM (inactive)
18,Cn1cc(/C=C2\SC(=O)NC2=S)c2ccccc21,> 80 µM (inactive)
19,Cc1cccc(C)c1NC(=O)c1nc(S(=O)(=O)Cc2ccccc2)ncc1Cl,12.3 µM
20,Cc1cccc(-n2c(/C=C/c3ccc([N+](=O)[O-])o3)nc3ccccc3c2=O)c1,11.7 µM
21,S=C(Nc1ccccn1)c1ccccn1,10.4 µM
22,Cc1ccc(C(=O)Cn2c(C(=O)/C=C/c3ccccc3)nc3ccccc32)cc1,13.7 µM
23,Cc1c(C(=O)c2no[n+]([O-])c2C(=O)c2cnn(C)c2C)cnn1C,> 80 µM (inactive)
24,CN(C)S(=O)(=O)c1cccc(NC(=O)CSc2cccc3cccnc23)c1,7.59 µM
25,CCCCCCCC(=O)Nc1ccc(C(=O)N/N=C/c2cccc([N+](=O)[O-])c2)cc1,inactive
26,CNC[C@@H](Cc1ccccc1)NC[C@@H](CC1CCCCC1)NCCCc1ccccc1,4.63 µM
27,Cc1ccc(N2C(=O)NC(=O)/C(=C/c3cnn(-c4ccc(C)cc4)c3)C2=O)cc1,16.9 µM
